The results in this text go back to patent US20260184710A1, “CASITAS B-LINEAGE LYMPHOMA PROTOONCOGENE B (CBL-B) DEGRADING COMPOUNDS AND ASSOCIATED METHODS OF USE” (Arvinas Operations, Inc., priority 2022, published 2026).

The target in experiment [1] is T1, Cbl-b (Homo sapiens, UniProt Q13191).
T1 construct: Cbl-b-HiBit KI Jurkat Cells were purchased from Promega; host or cells: Cbl-b-HiBiT knock-in Jurkat cells
Description: Cbl-b Degradation Method A (FACS, anti-Cbl-b antibody staining). The format is cell-based. To be noted: for Dmax: Jurkat, read-out: Cbl-b Degredation Method A Dmax (%). Put shortly: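 Readout is flow cytometry of fixed, permeabilized cells immunostained for Cbl-b (primary 1:200, AF488 secondary). Cells were Cbl-b-HiBit knock-in Jurkat, exposed to compound ≥20 h at 37 °C; half-maximal degradation concentration (DC50) and maximal degradation (Dmax) calculated relative to control.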

Experiment [2] deals with T1, Cbl-b. As to the kind of experiment: Cbl-b Degradation Method B (Nano-Glo HiBiT lytic detection). The format is cell-based. To be noted: Cbl-b-HiBit KI Jurkat Cells, incubated at least 6-24 hours; for Dmax / Cbl-b Degredation Method B Dmax (%): maximum degradation observed; for Dmax: read-out: Cbl-b Degredation Method B Dmax (%). Put shortly:
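An 11-point, 3-fold compound dilution was applied for 6-24 hours to Jurkat cells carrying HiBiT-tagged endogenous Cbl-b. Lytic HiBiT luminescence quantified residual protein. Outputs are DC50 and Dmax relative to DMSO control.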
A general note: With HiBiT, luminescence reflects the tagged protein that the partner subunit can reach.

Where [3] appears, read: Cbl-b-HiBit KI Jurkat Cells, incubated at least 20 hours, half maximal degradation, read-out: Cbl-b Degredation Method A IC50.
[4] abbreviates: Cbl-b-HiBit KI Jurkat Cells, incubated at least 20 hours, maximum degradation observed.
Setting [5] is: half maximal degradation, read-out: Cbl-b Degredation Method B IC50.

Each structure is given as a SMILES string.

T1 sequence (Q13191 whole entry): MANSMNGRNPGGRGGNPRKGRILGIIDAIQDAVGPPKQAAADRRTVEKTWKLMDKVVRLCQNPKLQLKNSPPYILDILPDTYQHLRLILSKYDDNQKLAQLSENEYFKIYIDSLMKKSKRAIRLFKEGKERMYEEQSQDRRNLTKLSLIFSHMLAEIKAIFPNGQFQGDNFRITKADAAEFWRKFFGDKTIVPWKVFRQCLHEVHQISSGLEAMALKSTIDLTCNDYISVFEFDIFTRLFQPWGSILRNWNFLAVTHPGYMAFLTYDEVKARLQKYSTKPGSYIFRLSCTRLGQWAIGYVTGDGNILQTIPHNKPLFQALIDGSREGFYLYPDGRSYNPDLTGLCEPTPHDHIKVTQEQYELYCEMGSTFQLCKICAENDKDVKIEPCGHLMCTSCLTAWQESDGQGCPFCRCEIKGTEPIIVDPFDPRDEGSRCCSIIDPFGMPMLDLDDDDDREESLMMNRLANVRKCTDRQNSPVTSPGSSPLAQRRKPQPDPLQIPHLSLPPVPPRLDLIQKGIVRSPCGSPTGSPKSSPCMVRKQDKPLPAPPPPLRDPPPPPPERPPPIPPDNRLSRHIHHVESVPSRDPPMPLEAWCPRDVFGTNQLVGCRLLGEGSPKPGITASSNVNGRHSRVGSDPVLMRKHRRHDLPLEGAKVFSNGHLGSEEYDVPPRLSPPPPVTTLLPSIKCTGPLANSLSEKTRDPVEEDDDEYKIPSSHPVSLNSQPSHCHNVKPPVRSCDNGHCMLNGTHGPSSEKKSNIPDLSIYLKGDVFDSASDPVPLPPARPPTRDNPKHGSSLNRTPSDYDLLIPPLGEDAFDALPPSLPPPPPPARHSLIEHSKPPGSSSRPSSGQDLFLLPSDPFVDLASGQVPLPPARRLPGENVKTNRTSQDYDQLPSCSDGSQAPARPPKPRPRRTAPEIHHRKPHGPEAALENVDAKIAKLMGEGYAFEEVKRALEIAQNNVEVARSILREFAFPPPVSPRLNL

The term Dmax denotes the greatest extent of degradation seen. With `C[C@H]1CN(Cc2cc3c(c(C(F)(F)F)c2)CN(c2cccc(C4(Cc5nncn5C)COC4)c2)C3=O)CCN1CC1CCC(OC2CCN(c3ccc4c(c3F)CN(C3CCC(=O)NC3=O)C4=O)CC2)CC1` (stereo partly drawn) [Example 237, 3-[4-fluoro-1-oxo-5-(4-{[(1rs,4rs)-4-{[(2S)-2-methyl-4-{[2-(3-{3-[(4-methyl-4H-1,2,4-triazol-3-yl)methyl]oxetan-3-yl}phenyl)-3-oxo-7-(trifluoromethyl)-2,3-dihydro-1H-isoindol-5-yl]methyl}piperazin-1-yl]methyl}cyclohexyl]oxy}piperidin-1-yl)-2,3-dihydro-1H-isoindol-2-yl]piperidine-2,6-dione], the DC50 on Cbl-b [1] (setting [3]) and on Cbl-b [2] (setting [5]) was < 5 nM throughout. For the same molecule, the Dmax at Cbl-b [1] (setting [4]) and at Cbl-b [2] was > 70% in each case.
With `CC1c2nc(N3CCC(OC4CCC(CN5CCN(Cc6cc7c(c(C(F)(F)F)c6)CN(c6cccc(C8(Cc9nncn9C)COC8)c6)C7=O)C[C@H]5C)CC4)CC3)ccc2C(=O)N1C1CCC(=O)NC1=O` (stereo partly drawn) [Example 238, 3-[7-methyl-5-oxo-2-(4-{[(1rs,4rs)-4-{[(2R)-2-methyl-4-{[2-(3-{3-[(4-methyl-4H-1,2,4-triazol-3-yl)methyl]oxetan-3-yl}phenyl)-3-oxo-7-(trifluoromethyl)-2,3-dihydro-1H-isoindol-5-yl]methyl}piperazin-1-yl]methyl}cyclohexyl]oxy}piperidin-1-yl)-5H,6H,7H-pyrrolo[3,4-b]pyridin-6-yl]piperidine-2,6-dione], the DC50 was 5 to 50 nM at Cbl-b [1] (setting [3]) and < 5 nM on Cbl-b [2] (setting [5]). For the same molecule, the Dmax at Cbl-b [1] (setting [4]) and at Cbl-b [2] was 35 to 70% in each case.
As to `CC1c2c(cc(CN3CCC[C@H](CN4CCN(C[C@H]5CC[C@H](OC6CCN(c7ccc8c(c7F)CN(C7CCC(=O)NC7=O)C8=O)CC6)CC5)CC4(C)C)C3)cc2C(F)(F)F)C(=O)N1c1cccc(C2(Cc3nncn3C)COC2)c1` (stereo partly drawn) [Example 276, 3-(5-(4-(((1S,4r)-4-((3,3-dimethyl-4-(((3S)-1-((1-methyl-2-(3-(3-((4-methyl-4H-1,2,4-triazol-3-yl)methyl)oxetan-3-yl)phenyl)-3-oxo-7-(trifluoromethyl)isoindolin-5-yl)methyl)piperidin-3-yl)methyl)piperazin-1-yl)methyl)cyclohexyl)oxy)piperidin-1-yl)-4-fluoro-1-oxoisoindolin-2-yl)piperidine-2,6-dione], the DC50 on Cbl-b [1] (setting [3]) and on Cbl-b [2] (setting [5]) was 5 to 50 nM throughout. The Dmax at Cbl-b [1] (setting [4]) was < 35%. For the same molecule, the “Cbl-b Degredation Method B Dmax (%)” value at Cbl-b [2] is recorded as “C (C ≤ 35)”.
For the molecule `CC1c2nc(N3CCC(CN4CCN(CC5CCN(Cc6cc7c(c(C(F)(F)F)c6)CN(c6cccc([C@]8(Cc9nncn9C)C[C@@H](C#N)C8)c6)C7=O)C(C)(C)C5)CC4)CC3)ccc2C(=O)N1C1CCC(=O)NC1=O` (stereo partly shown) [Example 277, (1r, 3r)-3-(3-{6-[(4-{[4-({1-[6-(2,6-dioxopiperidin-3-yl)-7-methyl-5-oxo-5H, 6H, 7H-pyrrolo [3,4-b]pyridin-2-yl]piperidin-4-yl}methyl)piperazin-1-yl]methyl}-2,2-dimethylpiperidin-1-yl)methyl]-1-oxo-4-(trifluoromethyl)-2,3-dihydro-1H-isoindol-2-yl}phenyl)-3-[(4-methyl-4H-1,2,4-triazol-3-yl)methyl]cyclobutane-1-carbonitrile], the DC50 is 5 to 50 nM on Cbl-b [1] (setting [3]) and < 5 nM on Cbl-b [2] (setting [5]). In addition, the Dmax on Cbl-b [1] is < 35%. Also, the “Cbl-b Degredation Method B Dmax (%)” value at Cbl-b [2] is on record as “C (C ≤ 35)”.
By IC50 is commonly meant the concentration that gives 50% inhibition. With `Cc1cc(N2CCC(C(C)(C)N3CCC4(CC3)CN(c3cc5c(c(C(F)(F)F)c3)CN(c3cccc([C@]6(Cc7nncn7C)C[C@@H](C#N)C6)c3)C5=O)C4)CC2)c(F)c2c1C(=O)N([C@@H]1CCC(=O)NC1=O)C2` [Example 278, (1r, 3r)-3-(3-{6-[7-(2-{1-[2-(2,6-dioxopiperidin-3-yl)-4-fluoro-7-methyl-1-oxo-2,3-dihydro-1H-isoindol-5-yl]piperidin-4-yl}propan-2-yl)-2,7-diazaspiro[3.5]nonan-2-yl]-1-oxo-4-(trifluoromethyl)-2,3-dihydro-1H-isoindol-2-yl}phenyl)-3-[(4-methyl-4H-1,2,4-triazol-3-yl)methyl]cyclobutane-1-carbonitrile], the IC50 at Cbl-b [1] (setting [3]) lay in the range of 50 to 500 nM; at Cbl-b [2] (setting [5]) it was 5 to 50 nM. In addition, the “Cbl-b Degredation Method A Dmax (%)” value on Cbl-b [1] (setting [4]) is listed as “B (35 < B < 70)”. In addition, the “Cbl-b Degredation Method B Dmax (%)” value on Cbl-b [2] is “C (C ≤ 35)”.
Consider `CC1c2nc(N3CCC(O[C@H]4CC[C@H](CN5CCN(Cc6cc7c(c(C(F)(F)F)c6)CN(c6cccc(C8(c9nncn9C)CCO8)c6)C7=O)C(C)(C)C5)CC4)CC3)ccc2C(=O)N1C1CCC(=O)NC1=O` (stereo partly shown) [Example 281, 3-[7-methyl-5-oxo-2-(4-{[(1r, 4r)-4-({3,3-dimethyl-4-[(2-{3-[2-(4-methyl-4H-1,2,4-triazol-3-yl)oxetan-2-yl]phenyl}-3-oxo-7-(trifluoromethyl)-2,3-dihydro-1H-isoindol-5-yl)methyl]piperazin-1-yl}methyl)cyclohexyl]oxy}piperidin-1-yl)-5H, 6H, 7H-pyrrolo[3,4-b]pyridin-6-yl]piperidine-2,6-dione], for which the results for the DC50 on Cbl-b [1] (setting [3]) and on Cbl-b [2] (setting [5]) were 5 to 50 nM and < 5 nM, respectively. In addition, the Dmax at Cbl-b [1] (setting [4]) fell in the range of 35 to 70%. The “Cbl-b Degredation Method B Dmax (%)” value at Cbl-b [2] is “C (C ≤ 35)”.
The like results for `CC(C)n1c(=O)n(C2CCC(=O)NC2=O)c2cccc(N3CCC(CN4CCC5(CC4)CN(Cc4ccc(-c6cc7c(c(C(F)(F)F)c6)CN(c6cccc(C8(Cc9nncn9C)CC(C#N)C8)c6)C7=O)cc4)C5)CC3)c21` (stereo not shown) [Example 283, 3-[3-[6-[4-[[7-[[1-[1-(2,6-dioxo-3-piperidyl)-3-isopropyl-2-oxo-benzimidazol-4-yl]-4-piperidyl]methyl]-2,7-diazaspiro[3.5]nonan-2-yl]methyl]phenyl]-1-oxo-4-(trifluoromethyl)isoindolin-2-yl]phenyl]-3-[(4-methyl-1,2,4-triazol-3-yl)methyl]cyclobutanecarbonitrile] were, in that order, 50 to 500 nM, 5 to 50 nM, 35 to 70% and “C (C ≤ 35)”.
The like results for `CC(C)n1c(=O)n(C2CCC(=O)NC2=O)c2cccc(N3CCC(CN4CCC5(CC4)CN(c4cc6c(c(C(F)(F)F)c4)CN(c4cccc([C@]7(Cc8nncn8C)C[C@@H](C#N)C7)c4)C6=O)C5)CC3)c21` (stereo partly shown) [Example 284, (1r,3r)-3-(3-{6-[7-({1-[1-(2,6-dioxopiperidin-3-yl)-2-oxo-3-(propan-2-yl)-2,3-dihydro-1H-1,3-benzodiazol-4-yl]piperidin-4-yl}methyl)-2,7-diazaspiro[3.5]nonan-2-yl]-1-oxo-4-(trifluoromethyl)-2,3-dihydro-1H-isoindol-2-yl}phenyl)-3-[(4-methyl-4H-1,2,4-triazol-3-yl)methyl]cyclobutane-1-carbonitrile] were, in that order, 50 to 500 nM, < 5 nM, 35 to 70% and “C (C ≤ 35)”.
The matching figures for `Cn1cnnc1CC1(c2cccc(N3Cc4c(cc(CN5CCC[C@@H](CN6CCN(C[C@H]7CC[C@H](OC8CCN(c9ccc%10c(c9F)CN(C9CCC(=O)NC9=O)C%10=O)CC8)CC7)CC6(C)C)C5)cc4C(F)(F)F)C3=O)c2)COC1` (stereo partly drawn) [Example 286, 3-[4-fluoro-1-oxo-5-(4-{[(1r,4r)-4-[(3,3-dimethyl-4-{[(3R)-1-{[2-(3-{3-[(4-methyl-4H-1,2,4-triazol-3-yl)methyl]oxetan-3-yl}phenyl)-3-oxo-7-(trifluoromethyl)-2,3-dihydro-1H-isoindol-5-yl]methyl}piperidin-3-yl]methyl}piperazin-1-yl)methyl]cyclohexyl]oxy}piperidin-1-yl)-2,3-dihydro-1H-isoindol-2-yl]piperidine-2,6-dione]: 50 to 500 nM, < 5 nM, 35 to 70% and “C (C ≤ 35)”.
In the case of `CC(C)n1c(=O)n(C2CCC(=O)NC2=O)c2cccc(N3CCC(O[C@H]4CC[C@H](CN5CCCN(Cc6cc7c(c(C(F)(F)F)c6)CN(c6cccc([C@]8(Cc9nncn9C)C[C@@H](C#N)C8)c6)C7=O)CC5)CC4)CC3)c21` (stereo partly shown) [Example 289, (1r,3r)-3-[(4-methyl-4H-1,2,4-triazol-3-yl)methyl]-3-(3-{1-oxo-6-[(4-{[(1r,4r)-4-({1-[1-(2,6-dioxopiperidin-3-yl)-2-oxo-3-(propan-2-yl)-2,3-dihydro-1H-1,3-benzodiazol-4-yl]piperidin-4-yl}oxy)cyclohexyl]methyl}-1,4-diazepan-1-yl)methyl]-4-(trifluoromethyl)-2,3-dihydro-1H-isoindol-2-yl}phenyl)cyclobutane-1-carbonitrile], the DC50 is 5 to 50 nM at Cbl-b [1] (setting [3]) and < 5 nM on Cbl-b [2] (setting [5]). Further, the Dmax at Cbl-b [1] (setting [4]) is 35 to 70%. Further, the “Cbl-b Degredation Method B Dmax (%)” value on Cbl-b [2] was “C (C ≤ 35)”.
